The values below come from patent US20250152580A1, “METHODS FOR TREATING IMMUNE DISEASES” (Ascentage Pharma (Suzhou) co., Ltd., priority 2022, published 2025).

The subject of test [1] is LPS inhalation induced lung neutrophils infiltration model. As to the kind of experiment: LPS inhalation induced neutrophils infiltration model in C57BL/6 mice. Format: in vivo. The following applies: Cpd. 4 50 mg/kg oral each day, Cpd. X 50 mg/kg iv twice a week, Cpd. XI 12 mg/kg iv twice a week, week 4-10; compared with Vehicle. How it is done: C57BL/6 mice (6-8 weeks old) were obtained from Shanghai LC Laboratory Animal Co. Ltd. Animals, housed and handled in a temperature-controlled environment with a 12-h light/12-h dark cycle. A total of 60 female C57BL/6J mice will be modeled by atomization inhalation LPS 3 times a week for 10 weeks (adjustments may be made according to animal health status). LPS concentration is at 0.7 mg/mL. On each day of challenge, animals in G1 will receive aerosol inhalation of PBS and intravenous injection of Vehicle; animals in G2 will receive aerosol inhalation of LPS and intravenous injection of Vehicle; animals in G3 will be given aerosol inhalation of LPS and intravenous injection of 50 mg/kg Cpd. X twice a week (D1/4) from week 4-10; animals in G4 will be given aerosol inhalation of LPS and intravenous injection of 12 mg/kg Cpd.XI twice a week (D1/4) from week 4-10; animals in G5 will be given aerosol inhalation of LPS and oral administration of 50 mg/kg Cpd. 4 each day from week 4-10; animals in G6 will be given aerosol inhalation of LPS and oral administration of dexamethasone 1 hour before each challenge. Lungs will be gently lavaged via the tracheal cannula with 0.8 mL of PBS containing 1% BSA and 0.6 mM EDTA 48 hr after the last LPS exposure. The procedure will be repeated twice with 0.8 mL of PBS containing 1% BSA and 0.6 mM EDTA. The bronchoalveolar lavage fluid (BALF) will be centrifuged at 300×g for 5 min at 4° C., the cell pellet will be resuspended in 1.5 mL PBS. Total numbers of neutrophils in BALF will be counted using a hemocytometer.

The subject of test [2] is TNBS induced inflammatory bowel disease (IBD) model. As to the kind of experiment: TNBS induced inflammatory bowel disease (IBD) model in Balb/c mice. Type of test: in vivo. The following applies: for colon weight: vehicle 336.8±25.15 mg; for colon length: vehicle 6.26±0.16 cm; for pathological score (colon, H&E): vehicle 10.33±0.35. An excerpt: There are two kinds of IBD: Crohn's disease (CD) and ulcerative colitis (UC). TNBS administration results in a preclinical mouse model replicating clinical Crohn's disease.
Female Balb/c mice (8 weeks old) were obtained from Beijing Vital River Laboratory Animal Co. Ltd. Animals were housed and handled in a temperature-controlled environment with a 12-h light/12-h dark cycle. A total of 50 mice were assigned to 5 groups by randomization based on body weight.
On Day 0, the mice weighing 18-20 g were anesthetized with […] (Easycheck, M2910). The mice were further intra-rectally injected 100 μL 1.5% TNBS solution (final concentration 50% ethanol) in the vehicle group and other treatment groups. For the Sham group, the mice were intra-rectally injected with 50% ethanol at the same volume.
Mice in Group 1 and Group 2 were treated with vehicle for 8 days (po, qd, from day −1 to day 6). Mice in Group 3 were treated with 50 mg/kg Cpd. 4 for 8 days (preventive regimen, po, qd, from day −1 to day 6). Mice in Group 4 were treated with 50 mg/kg Cpd. 4 for 6 days (therapeutic regimen, po, qd, from day 1 to day 6). 50 mg/kg Mesalamine was used as positive control which was orally administered to mice in Group 5 for 8 days (preventive regimen, qd, from day −1 to day 6). The protocols and procedures involving the care and use of animals were approved by the Institutional Animal Care and Use Committee (IACUC) at WuxiApptec (Shanghai, China).
Clinical signs of IBD were assessed every day based on the score of disease activity index (DAI) which was evaluated from three parameters using a scoring system from 0 to 4: stool consistency (0, normal stool; 1, soft but still formed stool; 2, soft and not formed stool; 3, very soft and wet stool; 4, watery diarrhea), bleeding score (0, negative hemoccult; 1, weak positive hemoccult; 2, positive hemoccult; 3, blood trace in stool visible; 4, gross rectal bleeding) and body weight loss (0, no body weight loos; 1, 1-5% body weight loss; 2, 6-10% body weight loss; 3, 11-20% body weight loss; 4, >20% body weight loss).
At the end of induction with TNBS (day 7), the animals were euthanized, dissected and the entire colon was quickly removed and gently cleared of feces.
The entire colon was weighed, and the total length was measured. Colon weight gain and shortening is an indirect marker of inflammation. As expected, colon weight induced by TNBS increased to 336.8±25.15 mg. […] The TNBS-induced colon weight increasement were improved by Cpd. 4 treatment (202.4±3.95 mg for 50 mg/kg Cpd. 4 preventive therapy and 214.4±5.17 mg for 50 mg/kg Cpd. 4 therapeutic therapy) (FIG. 2).
At the end of induction with TNBS, the animals were euthanized, and blood was collected immediately by the heart punctures and used for whole blood cell analysis.
At the end of the study (day 7), the cell suspensions from sham control, model control and Cpd. 4 therapeutic treatment groups were obtained from mesenteric lymph nodes (MLN). Cells were stained with the following florescence-labelled antibodies: APC-Cy7-conjugated anti-mouse CD45, BV510-conjugated anti-mouse CD3e, AF700-conjugated anti-mouse CD8a, BUV395-conjugated anti-mouse CD4, BV421-conjugated anti-mouse CD25, FITC-conjugated anti-mouse Foxp3, BV650-conjugated anti-mouse IFN-γ, BV786-conjugated anti-mouse IL-17A, BB700-conjugated anti-mouse TNF-α, APC-conjugated anti-mouse B220, BV395-conjugated anti-mouse CD3e, BV605-conjugated anti-mouse CD11b, BB700-conjugated anti-mouse CD11c, AF488-conjugated anti-mouse MHCII, BV421-conjugated anti-mouse NK1.1, BV510-conjugated anti-mouse Ly6G, PE-Cy7-conjugated anti-mouse CD107a and PE-CF594-conjugated anti-mouse F4/80. All cells were primarily gated on single and live lymphocytes based on forward scatter (FCS), side scatter (SSC) and live/dead staining buffer. Samples were analyzed on a flow cytometer (BD LSRFortessa) to count the percentage of each subtype of lymphocytes. […]

The mark [3] stands for this setting: 50 mg/kg po qd preventive treatment, day 7.
Where [4] appears, read: 50 mg/kg po qd therapeutic treatment, day 7.
[5] abbreviates: 50 mg/kg po qd, Cpd. 4 preventive and therapeutic, mesalamine day −1 to day 6, compared with Vehicle.
Where [6] appears, read: Cpd. 4 50 mg/kg po qd, preventive and therapeutic, compared with Vehicle, 50 mg/kg.
[7] abbreviates: mesenteric lymph nodes, flow cytometry, day 7, 50 mg/kg therapeutic treatment, compared with vehicle.

“Also recorded” adds a separate entry of the source.

Take `O=C(NS(=O)(=O)c1ccc(NC[C@H]2COCCO2)c([N+](=O)[O-])c1)c1ccc(N2CCN(CC3=C(c4ccc(Cl)cc4)CC4(CCC4)CC3)CC2)cc1Oc1cnc2[nH]ccc2c1` [Cpd. 4, (S)-N-((4-(((1,4-dioxan-2-yl)methyl)amino)-3-nitrophenyl)sulfonyl)-2-((1H-pyrrolo[2,3-b]pyridin-5-yl)oxy)-4-(4-((6-(4-chlorophenyl)spiro[3.5]non-6-en-7-yl)methyl)piperazin-1-yl)benzamide]: the “BALF neutrophils (infiltration in lung)” value in test [1] is on record as “significantly reducing the BALF neutrophils; also recorded: significantly reduced”. In test [2] (50 mg/kg po qd preventive therapy (day −1 to day 6), day 7), this compound displayed a colon weight of 202.4 ± 3.95 mg. Also, in test [2] (setting [3]), the colon length worked out at 7.81±0.2 cm and the “pathological score (colon, H&E)” value is on record as 2.70±0.80. Further, in test [2] (50 mg/kg po qd therapeutic therapy (day 1 to day 6), day 7), the colon weight was 214.4 ± 5.17 mg. Besides, in test [2] (setting [4]), the colon length came out at 7.39±0.12 cm and the “pathological score (colon, H&E)” value was determined as 5.00±1.15. Further, in test [2] (50 mg/kg po qd, Cpd. 4 preventive (day −1 to day 6) and therapeutic (day 1 to day 6) regimens, mesalamine day −1 to day 6, compared with Vehicle), the “disease activity index (DAI), clinical score of IBD” value is “significantly reducing the clinical score; also recorded: significantly reduced DAI”. Moreover, in test [2] (setting [5]), the “colon length (in words)” value is “increased colon length” and the “colon weight (in words)” value is given as “significantly decreased colon weight”. Besides, the body weight loss result in test [2] (Cpd. 4 50 mg/kg po qd, preventive and therapeutic regimens, compared with Vehicle, 50 mg/kg) is on record as “improving body weight loss; also recorded: improved body weight loss”. In test [2] (setting [6]), the “cell number of monocytes in peripheral blood” value is recorded as “significantly reduced; also recorded: significantly decreased” and the “cell number of neutrophils in peripheral blood” value is given as “significantly reduced; also recorded: significantly decreased”. The “anemia (red blood cells and hemoglobin in peripheral blood)” value in test [2] (Cpd. 4 50 mg/kg po qd, compared with Vehicle) was “improved anemia”. Moreover, the “fibrosis score (Masson's Trichrome staining of colon)” value in test [2] (Cpd. 4 50 mg/kg therapeutic treatment, compared with Vehicle) is given as “significantly reduced”. Besides, the “pathological score (in words)” value in test [2] (Cpd. 4 preventive and therapeutic, compared with Vehicle) is given as “significantly decreased”. Besides, in test [2] (setting [7]), the “percentage of IFN-γ secreting CD4+ T cells (Th1 cells)” value is reported as “significantly reduced”, the “percentage of IL-17A secreting CD4+ T cells (Th17 cells)” value is “significantly reduced”, the “percentage of NK cells (CD45+CD3−B220−NK1.1+)” value was “significantly reduced” and the “percentage of activated NK cells (CD45+CD3−B220−NK1.1+CD107a+)” value was “significantly reduced”. In test [2] (setting [7]), the “percentage of macrophages (CD45+CD3−B220−CD11b+F4/80+)” value was “significantly reduced” and the “percentage of neutrophils (CD45+CD3−B220−CD11B+LY6G+)” value is “significantly reduced”.
